Measurements from US20130116298A1, “ANTITUMOR AGENT OR POSTOPERATIVE ADJUVANT CHEMOTHERAPEUTIC AGENT FOR HEPATOCELLULAR CARCINOMA TREATMENT” (TAIHO PHARMACEUTICAL CO., LTD., priority 2009, published 2013).

Assays:
[1] = test system: hepatocellular carcinoma; test: Comparative clinical study of TSU-68 therapy in hepatocellular carcinoma patients treated with TACE; format: in vivo; settings: for Median of progression-free survival: 200 mg orally twice daily, started within 2 weeks after TACE
Procedure: A comparative clinical study was conducted for the TSU-68 administration group and the TSU-68 non-administration group consisting of cases that were impossible to treat with hepatectomy and PAT and had been treated with TACE and excluding cases evaluated as Child-Pugh grade C in terms of hepatic functional reserve. The antitumor agent used for TACE was epirubicin.
The subject cases were randomly assigned to the TSU-68 administration group and the TSU-68 non-administration group. TSU-68 administration was initiated for cases assigned to the TSU-68 administration group within 2 weeks after TACE. TSU-68 was administered orally at a dose of 200 mg per administration twice daily after breakfast and dinner on consecutive days. No further treatment was given to the TSU-68 non-administration group after TACE and thus only follow-up observation was carried out.
Progression-free survival was defined as survival within the period from the day of TACE designated as the initial date of reckoning to any of dates on which the following events was observed, whichever came first.
1. Date on which the presence of progressive disease (hereinafter referred to as “PD”) was confirmed as a result of assessment of best overall response (date of testing). 2. Date on which a test subject died for any reason (date of death). 3. Date on which a test subject was assessed to have experienced clinically obvious deterioration of the disease or to be in need of post-TACE treatment even without confirmation of PD upon assessment of best overall response (date of assessment).
Best overall response was evaluated by measuring tumor diameters by CT and assaying tumor markers (AFP, PIVKA-II, and AFP-L3 fractions) according to New Guideline to Evaluate the Response to Treatment in Solid Tumor (hereinafter referred to as “RECIST”) (J Natl Cancer Inst 92: 205, 2000).

[2] = test system: various human cancer cell lines; settings: oral administration alone; lung cancer, large bowel cancer, uterus cancer and the like; cited from earlier work
[3] = unresectable hepatocellular carcinoma patients; cited from earlier work
[4] = TACE-treated hepatocellular carcinoma patients of Child-Pugh grade A

SMILES	Progression-free survival compared with the TSU-68 non-administration group ([1]; TACE-treated hepatocellular carcinoma patients)	Progression-free survival compared with the TSU-68 non-administration group [1, 4]	Median of progression-free survival [1, 4] [month]	Severity of each adverse reaction ([1]; major adverse reactions: abdominal pain, ascites, edema, general fatigue, fever, feeling of sickness)	Median of progression-free survival ([1]; post-TACE hepatocellular carcinoma patients) [month]	Antitumor effect (tumor growth) [2]	Increase of AST level in patients [3] [%]	Increase of bilirubin level (corresponding to score 3 or more) in patients [3] [%]
Cc1[nH]c(/C=C2\C(=O)Nc3ccccc32)c(C)c1CCC(=O)O [TSU-68, (Z)-5-[(1,2-dihydro-2-oxo-3H-indol-3-ylidene)methyl]2,4-dimethyl-1H-pyrrol-3-propanoic acid]	significantly extended	significantly extended	5.8	grade 1 or 2	5.2	effective for inhibiting tumor growth	–	–
CNC(=O)c1cc(Oc2ccc(NC(=O)Nc3ccc(Cl)c(C(F)(F)F)c3)cc2)ccn1 [sorafenib]	–	–	–	–	–	–	45	32
